In article PMC9030827, “In Vitro Effects of Mitochondria-Targeted Antioxidants in a Small-Cell Carcinoma of the Ovary of Hypercalcemic Type and in Type 1 and Type 2 Endometrial Cancer” (Biomedicines, 2022):

Legend:
Format in all cases: cell-based, human
[1] = test system: Ishikawa, Hec50co, COV434, and HFF-1 cells; assay: Cell viability (MTT and NR assays), statements over all cell lines
Protocol: The Ishikawa, Hec50co, COV434, and HFF-1 cell lines were plated at a density of 5 × 10^4 cells/well in transparent 96-well plates. After 24 h, the cells were treated with Mito6_TPP, Mito6_picol., or Mito6_isoq. (0.01–100 μM) and incubated at 37 °C with 5% CO2 for 24, 48, or 72 h. […] The conditions of the methylthiazolyldiphenyl-tetrazolium bromide (MTT) assay were adapted from the work of Banerjee et al.. Briefly, MTT was added to a final concentration of 0.5 mg/mL, and the cells were incubated for 3 h at 37 °C with 5% CO2. After the 3 h, purple MTT formazan crystals were dissolved by agitation for 15 min in a solution of DMSO/isopropanol (ratio 3:1) and quantified spectrophotometrically at 540 nm. The neutral red (NR) assay conditions were based on the work developed by Repetto et al.. Briefly, after the incubation time, cells were incubated with NR at 40 μg/mL in an FBS-free cell medium for 3 h. The cells were then incubated with a solution of 50% ethanol (96% v/v), 49% deionized water, and 1% glacial acetic acid, with shaking for 15 min. The NR extracted from the cells was measured at 540 nm. […] For all assays, the absorbance was read using a BioTek Synergy HTX Multi-Mode Microplate Reader equipped with BioTek Gen5 Data Collection and Analysis Software (BioTek Instruments, Winooski, VT, USA).

Ishikawa cells = assay: Intracellular ROS/RNS assessment, DCFH-DA probe; details: 10 μM, 2 h immediately after addition
Protocol: (§1) The assay for the evaluation of the levels of ROS/RNS was based on the work of Bak, et al.. All cell lines were cultured in black 96-well plates at a density of 5 × 10^4 cells/well and allowed to adhere for 24 h. After adherence, the cells were incubated with 2′,7′-dichlorodihydrofluorescein diacetate (DCFH-DA) (25 μM) for 1 h at 37 °C in the dark. The DCFH-DA probe allows the detection of intracellular ROS, more specifically H2O2, HO^● and ROO^●, and RNS, more specifically, ^●NO and ONOO^− [51]. The cells were then treated with 10 μM of either Mito6_TPP, Mito6_picol., or Mito6_isoq. The stress inducer H2O2 (200 μM) was used as the positive control. The fluorescence provided by the probe was measured immediately and every 5 min for 2 h at 37 °C using a BioTek Synergy HTX Multi-Mode Microplate Fluorimeter equipped with BioTek Gen5 Data Collection and Analysis Software (BioTek Instruments, Winooski, VT, USA) (excitation: 485 nm; emission: 530 nm).

COV434 cells = assay: Intracellular ROS/RNS assessment, DCFH-DA probe; details: COV434, 10 μM, 2 h immediately after addition
Protocol: as §1

Hec50co cells [2] = assay: Intracellular ROS/RNS assessment, DCFH-DA probe; details: 10 μM, 2 h immediately after addition
Protocol: as §1

Hec50co cells [3] = assay: Cell morphology by Giemsa staining; details: 72 h, 5 μM Mito6_TPP, 20 μM Mito6_picol., 10 μM Mito6_isoq.
Protocol: Morphological changes in all cell lines were evaluated by phase-contrast microscopy (Eclipse TS100 Inverted Microscope, Nikon, Tokyo, Japan) and Giemsa staining. […] The cells were plated in 24-well plates with coverslips using the densities of 1 × 10^5 cells/well in Ishikawa and Hec50co and 2.5 × 10^5 cells/well in COV434 and HFF-1. After adherence, the cells were treated with Mito6_TPP (5 μM), Mito6_picol. (20 μM), or Mito6_isoq. (10 μM) and incubated at 37 °C with 5% CO2 for 72 h. For Giemsa staining, the cells were fixated with paraformaldehyde 4% in Phosphate Buffered Saline (PBS) for 15 min, stained with Giemsa solution for 30 min, mounted with DPX, and observed through bright field microscopy. For Höechst staining, the cells were incubated with 0.5 μg/mL Höechst 33342 in PBS for 20 min in the dark, mounted in Fluoroshield, and observed under a fluorescence microscope equipped with an excitation filter with maximum transmission at 360/400 nm. In both stainings, the cells were observed using the microscope Eclipse CI (Nikon, Japan) and the images were processed with Nikon NIS Elements Image Software (Nikon, Japan).

Question: What does the source list for `O=C(/C=C/c1ccc(O)c(O)c1)NCCCCCCCCCC[P+](c1ccccc1)(c1ccccc1)c1ccccc1` [Mito6_TPP]?
Answer: Lowest concentration inducing a significant decrease in cell viability [1]: 1 µM; Intracellular ROS levels vs untreated cells (Ishikawa cells): faster and more accentuated decrease in ROS levels; Intracellular ROS levels vs untreated cells (COV434 cells): faster and more accentuated decrease in ROS levels; Intracellular ROS levels vs untreated cells (Hec50co cells [2]): faster and more accentuated decrease in ROS levels; Cell morphology changes (Giemsa staining) (Hec50co cells [3]): altered cell shapes and indications of chromatin condensation

Question: How did the “Intracellular ROS levels vs untreated cells” value (COV434 cells) turn out when `Cc1cc[n+](CCCCCCCCCCNC(=O)/C=C/c2ccc(O)c(O)c2)cc1` [Mito6_picol.] was run?
Answer: no effects

Question: And the “Cell morphology changes (Giemsa staining)” value (Hec50co cells [3])?
Answer: did not induce any morphological changes
